Source: patent publication US10759795B2, “Aza-A-ring indenoisoquinoline topoisomerase I poisons” (Purdue Research Foundation, priority 2016, dated 2020)
“And” between values parts separate entries of the source, which are not always exact repeats. Equal values may be shown once. Where a name gives a salt, the structure may show the parent alone.

Key:
Top1 = target: T1, Top1 (Homo sapiens, UniProt P11387); experiment: Top1-mediated DNA cleavage assay; type: biochemical; details: score based on the activity of 1 μM 1 (camptothecin); tested at 0.1, 1, 10, 100 μM
T1 sequence (P11387 1-765): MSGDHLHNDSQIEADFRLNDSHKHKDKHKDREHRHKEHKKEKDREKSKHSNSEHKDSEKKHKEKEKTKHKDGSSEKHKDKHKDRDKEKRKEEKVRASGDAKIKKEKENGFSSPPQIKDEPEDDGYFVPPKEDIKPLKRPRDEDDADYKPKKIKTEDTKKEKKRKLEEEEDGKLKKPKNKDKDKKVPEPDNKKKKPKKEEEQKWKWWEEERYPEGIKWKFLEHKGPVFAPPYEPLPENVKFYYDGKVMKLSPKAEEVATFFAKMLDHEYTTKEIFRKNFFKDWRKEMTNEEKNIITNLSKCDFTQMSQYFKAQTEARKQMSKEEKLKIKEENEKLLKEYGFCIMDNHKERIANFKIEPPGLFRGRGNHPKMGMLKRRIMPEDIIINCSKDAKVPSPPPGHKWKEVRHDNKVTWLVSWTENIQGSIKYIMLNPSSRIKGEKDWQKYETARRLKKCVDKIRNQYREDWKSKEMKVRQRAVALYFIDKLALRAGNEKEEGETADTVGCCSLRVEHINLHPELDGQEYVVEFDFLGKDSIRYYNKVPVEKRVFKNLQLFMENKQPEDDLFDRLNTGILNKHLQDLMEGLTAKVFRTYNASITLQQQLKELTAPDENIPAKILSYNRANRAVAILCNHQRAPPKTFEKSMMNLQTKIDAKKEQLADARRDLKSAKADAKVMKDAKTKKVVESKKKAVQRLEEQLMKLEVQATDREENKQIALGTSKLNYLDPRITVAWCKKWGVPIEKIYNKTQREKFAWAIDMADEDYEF
Description: Approximately 2 nM radiolabeled DNA substrate was incubated with recombinant Top in 20 μL of reaction buffer [10 mM Tris-HCl (pH 7.5), 50 mM KCl, 5 mM MgCl2, 0.1 mM EDTA, and 15 μg/mL BSA] at 25° C. for 20 min in the presence of various concentrations of test compounds. […] Aliquots of each reaction mixture were subjected to 20% denaturing PAGE.
The Top1-mediated DNA cleavage assay was used to measure Top1 inhibitory activity. This assay measures the ability of the compound to stabilize DNA cleavage in a 3′-[^32P]-labeled DNA substrate via Top1 poisoning.

recombinant TDP1 = recombinant TDP1 (Homo sapiens, UniProt Q9NUW8); experiment: Recombinant TDP1 assay; type: biochemical; details: recombinant TDP1, gel-based; read-out: TDP1: IC50 values for the inhibition of TDP1
Description: A 5′-[^32P]-labeled single-stranded DNA oligonucleotide containing a 3′-phosphotyrosine (N14Y) was incubated at 1 nM with 10 pM recombinant TDP1 in the absence or presence of inhibitor for 15 min at room temperature in the LMP1 assay buffer containing 50 mM Tris HCl, pH 7.5, 80 mM KCl, 2 mM EDTA, 1 mM DTT, 40 μg/mL BSA, and 0.01% Tween-20^18. […] Gels were dried and exposed to a PhosphorImager screen (GE Healthcare). Gel images were scanned using a Typhoon 8600 (GE Healthcare), and densitometry analyses were performed using ImageQuant software (GE Healthcare).
TDP1 is involved in the repair of DNA damage that results from the action of Top1 poisons, which induce the formation of DNA-protein adducts that include a 3′-phosphotyrosyl linkage. The TDP1 inhibition assay assesses a test agent's ability to inhibit the enzyme-induced cleavage of a 5′-^32P, 3′-phosphotyrosyl-DNA oligonucleotide, called N14Y. Cleavage of the phosphodiester bond between the 3′-phosphate and tyrosine releases […] from the DNA oligonucleotide. The enzyme-processed DNA oligonucleotide lacking its 3′-phosphotyrosyl moiety is designated N14P. A schematic representation of the assay and a representative gel are shown in FIG. 2, and the TDP1 screening results are listed in Table 1.

recombinant human TDP2 = target: T2, recombinant human TDP2 (Homo sapiens, UniProt O95551); experiment: Recombinant TDP2 assay; type: biochemical; details: recombinant human TDP2, gel-based; read-out: TDP2: IC50 values for the inhibition of TDP2
T2 sequence (O95551 1-362): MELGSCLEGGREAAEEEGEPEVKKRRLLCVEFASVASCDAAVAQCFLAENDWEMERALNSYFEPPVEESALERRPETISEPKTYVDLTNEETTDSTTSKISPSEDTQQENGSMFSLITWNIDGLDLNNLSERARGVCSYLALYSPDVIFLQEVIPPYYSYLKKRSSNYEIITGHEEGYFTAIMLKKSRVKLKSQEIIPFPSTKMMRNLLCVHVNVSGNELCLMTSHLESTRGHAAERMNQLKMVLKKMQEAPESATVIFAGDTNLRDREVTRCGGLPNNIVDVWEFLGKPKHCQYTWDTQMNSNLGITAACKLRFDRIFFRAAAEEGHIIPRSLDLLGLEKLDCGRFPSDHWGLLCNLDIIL
From the text: Reactions were terminated and treated similarly to recombinant TDP1 reactions.
TDP2, as opposed to TDP1, cleaves the phosphotyrosyl linkage in 5′-phosphotyrosyl-DNA oligonucleotides.

[1] = system: 60 human cancer cell lines; experiment: NCI-60 single-dose cytotoxicity assay; type: cell-based; details: mean-graph midpoint of percent growth of 60 human cancer cell lines, 10 μM drug, 48 h, relative to no-drug control and time zero
Description: The new indenoisoquinolines were evaluated for cancer cell growth inhibitory activities. The National Cancer Institute's NCI-60 cytotoxicity assay measures the ability of test agents to inhibit the growth of approximately 60 different cancer cell lines. In the initial single-dose assay, cells are treated with a 10 μM dose of test agent. The growth of treated cells versus untreated cells is then compared. If a test agent induces a sufficiently low mean growth percent, it is promoted to five-dose testing to determine a mean graph midpoint (MGM) GI50 value. In five-dose testing, cells are treated with test agent concentrations ranging from 10^−8 to 10^−4 M. The concentration required to achieve 50% growth inhibition in a particular cell line is calculated. In situations in which this value is greater than 100 μM or less than 0.01 μM, it is recorded as 100 μM and 0.01 μM, respectively. The values for each of the tested cell lines are averaged to obtain a mean graph midpoint (MGM) GI50 value. MGM GI50 values are often, but not always, determined from two separate rounds (Table 1).

recombinant TDP1, sequence (Q9NUW8 whole entry, species assumed): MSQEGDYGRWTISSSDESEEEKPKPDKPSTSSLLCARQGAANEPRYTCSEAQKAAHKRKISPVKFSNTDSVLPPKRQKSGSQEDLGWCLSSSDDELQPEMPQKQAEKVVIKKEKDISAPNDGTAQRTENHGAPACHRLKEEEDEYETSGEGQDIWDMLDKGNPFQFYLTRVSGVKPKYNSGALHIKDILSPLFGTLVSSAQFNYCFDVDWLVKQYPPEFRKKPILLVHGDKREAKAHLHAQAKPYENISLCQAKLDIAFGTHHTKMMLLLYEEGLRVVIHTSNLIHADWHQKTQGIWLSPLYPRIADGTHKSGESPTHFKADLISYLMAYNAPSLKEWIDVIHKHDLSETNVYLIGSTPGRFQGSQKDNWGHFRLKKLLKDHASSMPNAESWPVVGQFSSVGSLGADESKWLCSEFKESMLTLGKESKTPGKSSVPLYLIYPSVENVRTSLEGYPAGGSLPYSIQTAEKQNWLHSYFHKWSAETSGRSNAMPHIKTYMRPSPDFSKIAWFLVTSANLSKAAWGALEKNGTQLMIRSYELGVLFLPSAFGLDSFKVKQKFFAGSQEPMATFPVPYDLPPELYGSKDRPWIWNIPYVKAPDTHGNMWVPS

Structure (SMILES)	Top 1: compound-induced DNA cleavage due to Top1 poisoning (Top1)	IC50 (recombinant TDP1)	IC50 (recombinant human TDP2)	melting point	Mean Growth % [1]
NCCCn1c2c(c3ncccc3c1=O)C(=O)c1ccccc1-2 [Compound 57, 6-(3-Aminopropyl)-1-aza-5,6-dihydro-5,11-dioxo-indeno[1,2-c]isoquinoline Dihydrochloride]	++ (++, between 50 and 75% activity)	43 µM and 63 µM	> 111 µM	–	–
O=C1c2ccccc2-c2c1c1cnccc1c(=O)n2CCCN1CCOCC1 [Compound 37, 2-Aza-5,6-dihydro-6-(3-morpholinopropyl)-5,11-dioxo-indeno[1,2-c]isoquinoline]	+++ (+++, between 75 and 95% activity)	> 111 µM	> 111 µM	218 to 219 °C	–
O=C1c2ccccc2-c2c1c1ncccc1c(=O)n2CCCN1CCOCC1 [Compound 36, 1-Aza-5,6-dihydro-6-(3-morpholinopropyl)-5,11-dioxo-indeno[1,2-c]isoquinoline]	++ (++, between 50 and 75% activity)	> 111 µM	> 111 µM	223 to 224 °C	87.9%
O=C1c2ccccc2-c2c1c1ncccc1c(=O)n2C[C@H](O)CO [Compound 48, (2′S)-1-Aza-5,6-dihydro-6-(2′,3′-dihydroxypropyl)-5,11-dioxo-indeno[1,2-c]isoquinoline]	+ (+, between 20 and 50%activity)	> 111 µM	> 111 µM	245 to 250 °C (dec.)	100%
O=C1c2ccccc2-c2c1c1cccnc1c(=O)n2CCCN1CCOCC1 [Compound 39, 4-Aza-5,6-dihydro-6-(3-morpholinopropyl)-5,11-dioxo-indeno[1,2-c]isoquinoline]	+++ (+++, between 75 and 95% activity)	> 111 µM	> 111 µM	177 to 178 °C	42.9%
NCCCn1c2c(c3ccncc3c1=O)C(=O)c1ccccc1-2 [Compound 59, 6-(3-Aminopropyl)-3-aza-5,6-dihydro-5,11-dioxo-indeno[1,2-c]isoquinoline Dihydrochloride]	–	30 µM and 48 µM	~111 µM	–	–
NCCCn1c2c(c3ccncc3c1=O)C(=O)c1ccccc1-2 (as salt: hydrochloride) [Compound 59, 6-(3-Aminopropyl)-3-aza-5,6-dihydro-5,11-dioxo-indeno[1,2-c]isoquinoline Dihydrochloride]	–	–	–	253 to 254 °C	–
NCCCn1c2c(c3cccnc3c1=O)C(=O)c1ccccc1-2 (as salt: hydrochloride) [Compound 60, 6-(3-Aminopropyl)-4-aza-5,6-dihydro-5,11-dioxo-indeno[1,2-c]isoquinoline Dihydrochloride]	–	–	–	284 to 286 °C	–
O=C1c2ccccc2-c2c1c1ccncc1c(=O)n2C[C@H](O)CO [Compound 50, (2′S)-3-Aza-5,6-dihydro-6-(2′,3′-dihydroxypropyl)-5,11-dioxo-indeno[1,2-c]isoquinoline]	++ (++, between 50 and 75% activity)	–	–	237 to 238 °C	–
NCCCn1c2c(c3cnccc3c1=O)C(=O)c1ccccc1-2 [Compound 58, 6-(3-Aminopropyl)-2-aza-5,6-dihydro-5,11-dioxo-indeno[1,2-c]isoquinoline Dihydrochloride]	++ (++, between 50 and 75% activity)	19 µM and 30 µM	~111 µM	–	–
O=C1c2ccccc2-c2c1c1ccncc1c(=O)n2CCCn1ccnc1 [Compound 42, 3-Aza-5,6-dihydro-6-(3-(1H-imidazol-1-yl)propyl)-5,11-dioxo-11H-indeno[1,2-c]isoquinoline]	+ (+, between 20 and 50%activity)	> 111 µM	> 111 µM	251 to 252 °C	47.5%
O=C1c2ccccc2-c2c1c1cnccc1c(=O)n2C[C@H](O)CO [Compound 49, (2′S)-2-Aza-5,6-dihydro-6-(2′,3′-dihydroxypropyl)-5,11-dioxo-indeno[1,2-c]isoquinoline]	+ (+, between 20 and 50%activity)	> 111 µM	> 111 µM	229 to 232 °C	85.5%
O=C1c2ccccc2-c2c1c1cccnc1c(=O)n2C[C@H](O)CO [Compound 51, (2′S)-4-Aza-5,6-dihydro-6-(2′,3′-dihydroxypropyl)-5,11-dioxo-indeno[1,2-c]isoquinoline]	+ (+, between 20 and 50%activity)	> 111 µM	> 111 µM	247 to 255 °C	61.7%
NCCCn1c2c(c3ncccc3c1=O)C(=O)c1ccccc1-2 (as salt: hydrochloride) [Compound 57, 6-(3-Aminopropyl)-1-aza-5,6-dihydro-5,11-dioxo-indeno[1,2-c]isoquinoline Dihydrochloride]	–	–	–	226 to 228 °C	–
O=C1c2ccccc2-c2c1c1ccncc1c(=O)n2CCCN1CCOCC1 [Compound 38, 3-Aza-5,6-dihydro-6-(3-morpholinopropyl)-5,11-dioxo-11H-indeno[1,2-c]isoquinoline]	++ (++, between 50 and 75% activity)	> 111 µM	> 111 µM	210 to 211 °C	–
NCCCn1c2c(c3cnccc3c1=O)C(=O)c1ccccc1-2 (as salt: hydrochloride) [Compound 58, 6-(3-Aminopropyl)-2-aza-5,6-dihydro-5,11-dioxo-indeno[1,2-c]isoquinoline Dihydrochloride]	–	–	–	272 to 274 °C	–
